Columns and labels:
Test in all cases: KINOMEscan competition binding
Details in all cases: compound 1.0 µM
[1] = biological target: PRKCD (human) (UniProt Q05655)
[2] = biological target: AKT1 (human) (UniProt P31749)
[3] = biological target: PIM3 (human) (UniProt Q86V86)
[4] = biological target: EPHB6 (human) (UniProt O15197)
[5] = biological target: MAP3K1 (human) (UniProt Q13233)
[6] = biological target: STK10 (human) (UniProt O94804)
[7] = biological target: NUAK1 (human) (UniProt O60285)
[8] = biological target: RIPK1 (human) (UniProt Q13546)
[9] = biological target: AXL (human) (UniProt P30530)
[10] = biological target: RIOK2 (human) (UniProt Q9BVS4)
[11] = biological target: MAP2K2 (human) (UniProt P36507)
[12] = biological target: STK36 (human) (UniProt Q9NRP7)
[13] = biological target: EPHB3 (human) (UniProt P54753)
[14] = biological target: SRPK2 (human) (UniProt P78362)
[15] = biological target: TYRO3 (human) (UniProt Q06418)
[16] = biological target: PRPF4B (human) (UniProt Q13523)
[17] = biological target: TSSK1B (human) (UniProt Q9BXA7)
[18] = biological target: CDC2L2 (human) (UniProt Q9UQ88)
[19] = biological target: STK24 (human) (UniProt Q9Y6E0)
[20] = biological target: PRKACB (human) (UniProt P22694)
[21] = biological target: STK33 (human) (UniProt Q9BYT3)
[22] = biological target: MAP4K5 (human) (UniProt Q9Y4K4)
[23] = biological target: MAPK10 (human) (UniProt P53779)
[24] = biological target: ROCK2 (human) (UniProt O75116)
[25] = tested on: MET (human), P08581 [M1250T]
[26] = biological target: MYO3B (human) (UniProt Q8WXR4)
[27] = tested on: EGFR (human), P00533 [L858R]
[28] = biological target: CDK16 (human) (UniProt Q00536)
[29] = biological target: PRKG1 (human) (UniProt Q13976)
[30] = biological target: CDK11B (human) (UniProt P21127)
[31] = biological target: CAMK2G (human) (UniProt Q13555)
[32] = biological target: CSNK1D (human) (UniProt P48730)
[33] = biological target: ACVR1 (human) (UniProt Q04771)
[34] = biological target: TAOK3 (human) (UniProt Q9H2K8)
[35] = biological target: TNIK (human) (UniProt Q9UKE5)
[36] = biological target: MAPK1 (human) (UniProt P28482)
[37] = biological target: PTK2B (human) (UniProt Q14289)
[38] = biological target: CDC42BPB (human) (UniProt Q9Y5S2)
[39] = biological target: MST4 (human) (UniProt Q9P289)
[40] = biological target: CDK8 (human) (UniProt P49336)
CDK8 (human), sequence (P49336 whole entry, looked up): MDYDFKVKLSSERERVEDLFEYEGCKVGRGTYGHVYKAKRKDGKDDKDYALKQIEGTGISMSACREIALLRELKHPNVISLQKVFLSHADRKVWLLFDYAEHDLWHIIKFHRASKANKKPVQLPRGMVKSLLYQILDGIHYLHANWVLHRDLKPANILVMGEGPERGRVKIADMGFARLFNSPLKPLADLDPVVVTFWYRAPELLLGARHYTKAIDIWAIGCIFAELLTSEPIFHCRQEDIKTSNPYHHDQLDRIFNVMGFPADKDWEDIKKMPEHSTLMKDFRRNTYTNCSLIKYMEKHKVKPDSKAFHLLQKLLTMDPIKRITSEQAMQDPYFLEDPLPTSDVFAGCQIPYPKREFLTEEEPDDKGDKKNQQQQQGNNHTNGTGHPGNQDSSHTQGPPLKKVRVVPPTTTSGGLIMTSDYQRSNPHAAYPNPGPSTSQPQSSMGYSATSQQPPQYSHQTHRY

STK33 (human), sequence (Q9BYT3 whole entry, looked up): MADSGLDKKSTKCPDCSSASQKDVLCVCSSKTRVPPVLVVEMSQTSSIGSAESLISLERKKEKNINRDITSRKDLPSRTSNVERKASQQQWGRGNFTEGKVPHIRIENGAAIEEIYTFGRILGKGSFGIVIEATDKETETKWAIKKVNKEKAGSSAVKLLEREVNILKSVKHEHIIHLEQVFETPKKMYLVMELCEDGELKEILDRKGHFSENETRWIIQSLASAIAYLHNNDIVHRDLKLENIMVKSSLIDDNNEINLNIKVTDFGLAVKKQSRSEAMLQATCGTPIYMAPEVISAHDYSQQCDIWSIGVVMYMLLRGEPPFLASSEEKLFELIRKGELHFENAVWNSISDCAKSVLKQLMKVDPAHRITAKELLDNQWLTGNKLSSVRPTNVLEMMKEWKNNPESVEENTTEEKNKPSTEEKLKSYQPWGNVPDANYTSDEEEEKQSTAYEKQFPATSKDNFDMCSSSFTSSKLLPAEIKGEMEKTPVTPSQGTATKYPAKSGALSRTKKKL
AXL (human), sequence (P30530 whole entry, looked up): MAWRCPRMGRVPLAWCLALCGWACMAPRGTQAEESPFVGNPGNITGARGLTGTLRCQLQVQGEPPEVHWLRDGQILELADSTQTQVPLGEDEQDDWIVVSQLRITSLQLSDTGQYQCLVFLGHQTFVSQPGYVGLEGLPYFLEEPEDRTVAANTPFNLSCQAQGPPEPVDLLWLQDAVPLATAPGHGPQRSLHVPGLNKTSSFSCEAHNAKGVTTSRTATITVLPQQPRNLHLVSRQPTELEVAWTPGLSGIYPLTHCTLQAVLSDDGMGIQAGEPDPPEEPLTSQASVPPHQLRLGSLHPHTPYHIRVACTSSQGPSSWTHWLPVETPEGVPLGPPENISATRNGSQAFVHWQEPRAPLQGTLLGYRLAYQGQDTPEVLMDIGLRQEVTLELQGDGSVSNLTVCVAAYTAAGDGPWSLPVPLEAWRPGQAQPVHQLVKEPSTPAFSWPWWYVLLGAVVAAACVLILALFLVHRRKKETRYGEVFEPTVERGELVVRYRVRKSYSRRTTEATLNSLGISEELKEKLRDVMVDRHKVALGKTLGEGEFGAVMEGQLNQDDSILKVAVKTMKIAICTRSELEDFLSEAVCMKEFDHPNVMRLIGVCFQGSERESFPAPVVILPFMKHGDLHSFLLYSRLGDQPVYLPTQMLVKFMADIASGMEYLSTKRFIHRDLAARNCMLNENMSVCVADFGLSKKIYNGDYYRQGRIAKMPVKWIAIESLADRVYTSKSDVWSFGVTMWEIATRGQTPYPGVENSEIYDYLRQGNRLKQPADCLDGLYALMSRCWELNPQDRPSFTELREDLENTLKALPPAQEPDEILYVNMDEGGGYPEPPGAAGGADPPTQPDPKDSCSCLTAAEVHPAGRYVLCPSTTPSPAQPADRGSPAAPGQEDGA
CSNK1D (human), sequence (P48730 whole entry, looked up): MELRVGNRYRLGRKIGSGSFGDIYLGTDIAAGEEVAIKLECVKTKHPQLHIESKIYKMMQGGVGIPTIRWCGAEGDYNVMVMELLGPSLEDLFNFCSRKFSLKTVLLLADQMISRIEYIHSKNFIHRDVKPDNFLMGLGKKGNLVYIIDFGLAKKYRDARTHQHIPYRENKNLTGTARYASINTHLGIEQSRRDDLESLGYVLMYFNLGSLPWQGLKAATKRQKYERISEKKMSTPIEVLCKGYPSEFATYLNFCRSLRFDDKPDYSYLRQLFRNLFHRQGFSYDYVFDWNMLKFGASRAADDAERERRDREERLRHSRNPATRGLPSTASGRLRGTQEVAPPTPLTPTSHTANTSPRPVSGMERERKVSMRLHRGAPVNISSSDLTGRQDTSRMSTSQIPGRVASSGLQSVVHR
TSSK1B (human), sequence (Q9BXA7 whole entry, looked up): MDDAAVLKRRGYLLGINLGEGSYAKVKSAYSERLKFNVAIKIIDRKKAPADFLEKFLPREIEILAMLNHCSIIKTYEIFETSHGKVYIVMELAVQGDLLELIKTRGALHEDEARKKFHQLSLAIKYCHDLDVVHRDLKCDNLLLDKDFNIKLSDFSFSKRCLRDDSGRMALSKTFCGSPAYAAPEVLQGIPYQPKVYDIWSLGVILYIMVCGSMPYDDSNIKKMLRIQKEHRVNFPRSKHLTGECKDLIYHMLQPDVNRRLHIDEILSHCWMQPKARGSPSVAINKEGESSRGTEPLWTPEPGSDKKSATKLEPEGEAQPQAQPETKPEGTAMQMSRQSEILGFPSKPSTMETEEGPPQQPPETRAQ
NUAK1 (human), sequence (O60285 whole entry, looked up): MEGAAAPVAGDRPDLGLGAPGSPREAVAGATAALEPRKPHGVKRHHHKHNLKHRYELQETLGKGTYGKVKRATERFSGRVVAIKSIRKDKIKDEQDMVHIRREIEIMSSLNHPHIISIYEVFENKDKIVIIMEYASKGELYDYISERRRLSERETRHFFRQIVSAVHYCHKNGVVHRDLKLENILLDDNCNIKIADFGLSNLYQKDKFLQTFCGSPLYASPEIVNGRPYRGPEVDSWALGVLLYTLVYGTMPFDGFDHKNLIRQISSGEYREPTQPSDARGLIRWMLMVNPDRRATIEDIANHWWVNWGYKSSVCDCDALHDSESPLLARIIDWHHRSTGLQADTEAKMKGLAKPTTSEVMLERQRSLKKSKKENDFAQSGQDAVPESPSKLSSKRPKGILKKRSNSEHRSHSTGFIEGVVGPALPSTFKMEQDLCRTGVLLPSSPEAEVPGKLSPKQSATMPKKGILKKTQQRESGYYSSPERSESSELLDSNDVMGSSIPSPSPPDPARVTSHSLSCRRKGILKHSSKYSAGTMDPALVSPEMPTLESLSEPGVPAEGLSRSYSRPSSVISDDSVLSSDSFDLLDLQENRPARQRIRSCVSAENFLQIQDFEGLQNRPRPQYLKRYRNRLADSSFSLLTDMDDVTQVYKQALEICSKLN
STK24 (human), sequence (Q9Y6E0 whole entry, looked up): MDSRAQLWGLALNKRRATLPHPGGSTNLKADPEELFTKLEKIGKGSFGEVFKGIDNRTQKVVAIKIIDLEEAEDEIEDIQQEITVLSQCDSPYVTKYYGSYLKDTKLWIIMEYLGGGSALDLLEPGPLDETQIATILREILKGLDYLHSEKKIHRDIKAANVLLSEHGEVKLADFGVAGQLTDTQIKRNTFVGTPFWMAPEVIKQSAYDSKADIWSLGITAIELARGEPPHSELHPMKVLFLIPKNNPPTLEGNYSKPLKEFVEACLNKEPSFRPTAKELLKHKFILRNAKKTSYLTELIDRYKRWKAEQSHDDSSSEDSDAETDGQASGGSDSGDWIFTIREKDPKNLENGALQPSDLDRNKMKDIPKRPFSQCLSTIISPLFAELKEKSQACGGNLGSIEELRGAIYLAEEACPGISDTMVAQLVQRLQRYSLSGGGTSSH
ACVR1 (human), sequence (Q04771 whole entry, looked up): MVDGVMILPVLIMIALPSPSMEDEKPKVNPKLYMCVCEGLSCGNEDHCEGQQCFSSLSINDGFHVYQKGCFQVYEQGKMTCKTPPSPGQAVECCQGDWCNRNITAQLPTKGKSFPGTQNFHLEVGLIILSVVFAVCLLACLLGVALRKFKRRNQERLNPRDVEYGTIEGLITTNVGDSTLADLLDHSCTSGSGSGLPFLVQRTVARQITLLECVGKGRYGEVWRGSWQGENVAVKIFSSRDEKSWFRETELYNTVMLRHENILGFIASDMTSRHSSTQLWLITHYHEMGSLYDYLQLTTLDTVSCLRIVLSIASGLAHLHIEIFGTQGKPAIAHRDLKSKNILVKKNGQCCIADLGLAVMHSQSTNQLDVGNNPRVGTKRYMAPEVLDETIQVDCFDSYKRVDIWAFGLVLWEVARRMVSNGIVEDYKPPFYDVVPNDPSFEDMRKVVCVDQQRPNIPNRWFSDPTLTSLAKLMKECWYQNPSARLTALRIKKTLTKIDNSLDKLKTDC
RIOK2 (human), sequence (Q9BVS4 whole entry, looked up): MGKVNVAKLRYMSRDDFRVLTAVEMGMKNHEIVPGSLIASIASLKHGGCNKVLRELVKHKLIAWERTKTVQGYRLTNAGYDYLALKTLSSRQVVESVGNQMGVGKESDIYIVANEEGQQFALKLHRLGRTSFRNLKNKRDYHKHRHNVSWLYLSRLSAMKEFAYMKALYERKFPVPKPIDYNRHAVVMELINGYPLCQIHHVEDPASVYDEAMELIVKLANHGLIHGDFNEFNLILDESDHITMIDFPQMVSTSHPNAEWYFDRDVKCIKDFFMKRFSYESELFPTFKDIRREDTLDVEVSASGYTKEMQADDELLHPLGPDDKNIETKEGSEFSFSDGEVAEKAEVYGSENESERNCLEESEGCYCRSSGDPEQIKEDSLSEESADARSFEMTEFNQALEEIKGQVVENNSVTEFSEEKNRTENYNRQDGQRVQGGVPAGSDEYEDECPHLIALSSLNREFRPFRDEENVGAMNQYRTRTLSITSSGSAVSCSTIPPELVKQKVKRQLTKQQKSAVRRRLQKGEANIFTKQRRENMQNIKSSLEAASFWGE

- inhibition of binding [1]: 4%
- inhibition of binding [2]: 0%
- inhibition of binding [3]: 5%
- inhibition of binding [4]: 3%
- inhibition of binding [5]: 0%
- inhibition of binding [6]: 4%
- inhibition of binding [7]: 42%
- inhibition of binding [8]: 0%
- inhibition of binding [9]: 7%
- inhibition of binding [10]: 0%
- inhibition of binding [11]: 0%
- inhibition of binding [12]: 0%
- inhibition of binding [13]: 4%
- inhibition of binding [14]: 27%
- inhibition of binding [15]: 0%
- inhibition of binding [16]: 4%
- inhibition of binding [17]: 5%
- inhibition of binding [18]: 19%
- inhibition of binding [19]: 5%
- inhibition of binding [20]: 4%
- inhibition of binding [21]: 0%
- inhibition of binding [22]: 0%
- inhibition of binding [23]: 17%
- inhibition of binding [24]: 0%
- inhibition of binding [25]: 20%
- inhibition of binding [26]: 1%
- inhibition of binding [27]: 16%
- inhibition of binding [28]: 0%
- inhibition of binding [29]: 0%
- inhibition of binding [30]: 10%
- inhibition of binding [31]: 0%
- inhibition of binding [32]: 27%
- inhibition of binding [33]: 0%
- inhibition of binding [34]: 10%
- inhibition of binding [35]: 1%
- inhibition of binding [36]: 0%
- inhibition of binding [37]: 0%
- inhibition of binding [38]: 0%
- inhibition of binding [39]: 0%
- inhibition of binding [40]: 0%
Compound: Nc1cc(C(F)(F)F)c(-c2cc(N3CCOCC3)nc(N3CCOCC3)n2)cn1
